# Patent US9079895B2, “Morpholino compounds, uses and methods” (University of Dundee, priority 2012, dated 2015)
# Values joined by “and” are separate entries in the source; they are usually repeats but may differ in a detail not shown here. Equal entries are not always repeated. Where two headings read alike, the source gives them in different places.
# What was measured:
# 5HT1d receptor = 5HT1d receptor (Homo sapiens (Human), UniProt P28221); assay: Secondary radioligand binding assay, 5HT1d; design: key to Ki 5HT1d: “—” indicates that a binding interaction was not detected; conditions: average of at least two experiments;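 also: competition binding against a radioligand on membranes from transfected cell lines, 1.5 h at room temperature, filter-retained radioactivity counted by liquid scintillation, total binding plotted versus log competitor concentration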
# Sequence of 5HT1d receptor (P28221 whole entry): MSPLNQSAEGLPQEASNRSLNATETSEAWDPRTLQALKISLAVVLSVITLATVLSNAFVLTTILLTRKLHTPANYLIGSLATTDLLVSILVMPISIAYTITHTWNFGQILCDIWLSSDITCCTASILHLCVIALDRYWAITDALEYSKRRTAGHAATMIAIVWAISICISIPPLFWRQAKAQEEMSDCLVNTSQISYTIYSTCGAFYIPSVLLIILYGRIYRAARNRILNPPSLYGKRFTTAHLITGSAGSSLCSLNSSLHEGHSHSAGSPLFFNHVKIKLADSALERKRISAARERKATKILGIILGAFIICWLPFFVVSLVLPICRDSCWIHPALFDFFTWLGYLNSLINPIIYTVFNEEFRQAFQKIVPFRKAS
# Procedure: (§8) Assay Buffer: Standard Binding Buffer (50 mM Tris-HCl, 10 mM MgCl2, 1 mM EDTA, pH 7.4)
# (§9) Membrane Fraction Source: Transiently or stably transfected cell lines (e.g., HEK293, COS, CHO, NIH3T3)
# dopamine D2 receptor = dopamine D2 receptor (Homo sapiens (Human), UniProt P14416); assay: Secondary radioligand binding assay, D2; design: key to Ki D2: “—” indicates that a binding interaction was not detected; conditions: average of at least two experiments
# Sequence of dopamine D2 receptor (P14416 whole entry, species assumed): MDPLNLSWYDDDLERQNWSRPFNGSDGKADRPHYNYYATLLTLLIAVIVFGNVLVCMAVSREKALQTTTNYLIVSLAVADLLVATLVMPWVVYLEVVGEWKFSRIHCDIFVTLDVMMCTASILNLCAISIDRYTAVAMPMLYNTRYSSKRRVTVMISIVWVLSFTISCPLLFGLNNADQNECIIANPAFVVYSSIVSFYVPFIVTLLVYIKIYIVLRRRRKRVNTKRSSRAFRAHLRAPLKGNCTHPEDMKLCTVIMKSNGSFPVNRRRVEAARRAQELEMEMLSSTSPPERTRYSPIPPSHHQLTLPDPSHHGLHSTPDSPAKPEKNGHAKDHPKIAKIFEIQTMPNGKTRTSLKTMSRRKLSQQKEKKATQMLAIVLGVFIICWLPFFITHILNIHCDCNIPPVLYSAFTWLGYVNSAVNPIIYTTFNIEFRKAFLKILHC
# Procedure: (§1) 1. Secondary Radioligand Binding Assays
# (§2) The detailed experimental protocols for the radioligand and functional receptor assays are available on the NIMH PDSP website at http://pdsp.med.unc.edu/UNC-CH %20Protocol %20Book.pdf.
# (§3) Radioligand is diluted to five times the assay concentration (see Table 18) in Standard Binding Buffer. Typically, the assay concentration of radioligand is a value between one half the KD and the KD of a particular radioligand at its target. 50 μl aliquots of radioligand are dispensed into the wells of a 96-well plate containing 100 μl of Standard Binding Buffer. Then, duplicate 50 μl aliquots of the test and reference compound dilutions are added.
# (§4) The 250 μl reactions are incubated at room temperature and shielded from light (to prevent photolysis of light-sensitive ligands) for 1.5 hours, then harvested by rapid filtration onto Whatman GF/B glass fiber filters pre-soaked with 0.3% polyethyleneimine using a 96-well Brandel harverster. Four rapid 500 μl washes are performed with chilled Standard Binding Buffer to reduce non-specific binding. Filters are placed in 6 ml scintillation tubes and allowed to dry overnight. The next day, 4 ml of EcoScint scintillation cocktail (National Diagnostics) are added to each tube. The tubes are capped, labeled, and counted by liquid scintillation counting. […] The filter mats are dried, then scintillant is melted onto the filters and the radioactivity retained on the filters is counted in a Microbeta scintillation counter.
# (§5) Raw data (dpm) representing total radioligand binding (i.e. specific+non-specific binding) are plotted as a function of the logarithm of the molar concentration of the competitor (i.e. test or reference compound).
# (§6) B. Dopamine Receptors: D1, D2, D3, D4, D5 Assay Buffers: Dopamine Binding Buffer (50 mM NaCl, 50 mM HEPES-HCl, 5 mM MgCl2, 0.5 mM EDTA, pH 7.4) Membrane Fraction Source: Transiently or stably transfected cell lines (e.g. HEK293, COS, CHO, NIH3T3)
# (§7) The method is carried out in the manner described for the serotonin receptor assay above. Eleven dilutions (5× assay concentration) of the test and reference (see Table 19) compounds are prepared in Dopamine Binding Buffer by serial dilution, as previously described. Radioligand is diluted to five times the assay concentration (see Table 20) in Dopamine Binding Buffer.
# 5HT1a receptor = 5HT1a receptor (Homo sapiens (Human), UniProt P08908); assay: Secondary radioligand binding assay, 5HT1a; conditions: average of at least two experiments
# Sequence of 5HT1a receptor (P08908 whole entry): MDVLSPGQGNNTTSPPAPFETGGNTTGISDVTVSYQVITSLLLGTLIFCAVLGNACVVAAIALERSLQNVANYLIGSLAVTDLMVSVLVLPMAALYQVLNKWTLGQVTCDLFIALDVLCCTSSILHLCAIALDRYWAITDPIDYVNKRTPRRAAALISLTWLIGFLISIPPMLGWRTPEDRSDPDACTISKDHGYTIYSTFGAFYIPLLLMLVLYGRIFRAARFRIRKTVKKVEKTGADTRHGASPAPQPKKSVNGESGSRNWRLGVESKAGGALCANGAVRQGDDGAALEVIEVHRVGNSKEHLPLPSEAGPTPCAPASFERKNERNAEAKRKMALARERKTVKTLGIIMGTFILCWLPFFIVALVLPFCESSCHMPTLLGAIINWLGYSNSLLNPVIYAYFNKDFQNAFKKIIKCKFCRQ
# Procedure: as §8, §9
# dopamine D1 receptor = dopamine D1 receptor (Homo sapiens (Human), UniProt P21728); assay: Secondary radioligand binding assay, D1; design: key to Ki D1: “—” indicates that a binding interaction was not detected; conditions: average of at least two experiments
# Sequence of dopamine D1 receptor (P21728 whole entry): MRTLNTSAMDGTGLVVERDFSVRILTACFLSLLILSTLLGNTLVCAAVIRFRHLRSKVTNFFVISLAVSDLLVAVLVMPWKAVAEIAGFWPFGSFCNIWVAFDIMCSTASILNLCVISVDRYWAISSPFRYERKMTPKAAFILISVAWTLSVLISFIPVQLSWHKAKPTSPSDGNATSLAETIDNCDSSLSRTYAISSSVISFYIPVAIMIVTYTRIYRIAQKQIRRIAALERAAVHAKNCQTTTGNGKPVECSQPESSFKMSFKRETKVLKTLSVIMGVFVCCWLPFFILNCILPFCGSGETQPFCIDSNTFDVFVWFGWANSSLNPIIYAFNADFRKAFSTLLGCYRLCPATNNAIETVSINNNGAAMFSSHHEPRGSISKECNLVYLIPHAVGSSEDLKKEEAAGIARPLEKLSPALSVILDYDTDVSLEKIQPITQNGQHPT
# Procedure: as §1, §2, §3, §4, §5, §6, §7
# dopamine D5 receptor = dopamine D5 receptor (Homo sapiens (Human), UniProt P21918); assay: Secondary radioligand binding assay, D5; design: key to Ki D5: “—” indicates that a binding interaction was not detected; conditions: average of at least two experiments
# Sequence of dopamine D5 receptor (P21918 whole entry): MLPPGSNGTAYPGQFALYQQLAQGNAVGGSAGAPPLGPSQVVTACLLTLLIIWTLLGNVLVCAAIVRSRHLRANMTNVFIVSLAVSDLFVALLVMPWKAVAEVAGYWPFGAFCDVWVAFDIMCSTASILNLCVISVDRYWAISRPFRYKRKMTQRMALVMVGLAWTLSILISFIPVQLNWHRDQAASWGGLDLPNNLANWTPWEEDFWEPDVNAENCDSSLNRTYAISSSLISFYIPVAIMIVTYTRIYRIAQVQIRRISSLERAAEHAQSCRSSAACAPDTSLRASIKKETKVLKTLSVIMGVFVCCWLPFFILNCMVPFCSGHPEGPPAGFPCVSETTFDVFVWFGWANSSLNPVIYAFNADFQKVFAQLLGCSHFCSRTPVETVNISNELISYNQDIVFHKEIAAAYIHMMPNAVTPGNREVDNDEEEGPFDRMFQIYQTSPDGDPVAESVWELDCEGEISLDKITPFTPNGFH
# Procedure: as §1, §2, §3, §4, §5, §6, §7
# 5HT7 receptor = 5HT7 receptor (Homo sapiens (Human), UniProt P34969); assay: Secondary radioligand binding assay, 5HT7; design: key to Ki 5HT7: “—” indicates that a binding interaction was not detected; conditions: average of at least two experiments;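 also: competition of test compound with radioligand for binding to membranes from transfected cell lines, 1.5 h incubation at room temperature, filter-bound radioactivity read by liquid scintillation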
# Sequence of 5HT7 receptor (P34969 whole entry): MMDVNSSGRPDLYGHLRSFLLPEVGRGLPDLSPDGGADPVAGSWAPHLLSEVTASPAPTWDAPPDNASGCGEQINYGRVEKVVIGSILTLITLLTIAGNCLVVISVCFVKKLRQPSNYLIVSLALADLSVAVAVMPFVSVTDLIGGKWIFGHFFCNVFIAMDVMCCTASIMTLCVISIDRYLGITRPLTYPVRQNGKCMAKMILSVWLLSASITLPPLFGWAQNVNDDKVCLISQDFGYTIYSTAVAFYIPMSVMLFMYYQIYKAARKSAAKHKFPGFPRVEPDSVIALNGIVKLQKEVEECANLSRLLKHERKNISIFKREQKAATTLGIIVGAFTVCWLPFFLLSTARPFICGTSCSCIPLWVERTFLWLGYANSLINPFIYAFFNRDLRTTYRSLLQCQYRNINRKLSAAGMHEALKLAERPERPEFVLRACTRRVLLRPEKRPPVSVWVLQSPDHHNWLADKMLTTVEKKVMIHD
# Procedure: as §8, §9
# dopamine D3 receptor = dopamine D3 receptor (Homo sapiens (Human), UniProt P35462); assay: Secondary radioligand binding assay, D3; design: key to Ki D3: “—” indicates that a binding interaction was not detected; conditions: average of at least two experiments
# Sequence of dopamine D3 receptor (P35462 whole entry, species assumed): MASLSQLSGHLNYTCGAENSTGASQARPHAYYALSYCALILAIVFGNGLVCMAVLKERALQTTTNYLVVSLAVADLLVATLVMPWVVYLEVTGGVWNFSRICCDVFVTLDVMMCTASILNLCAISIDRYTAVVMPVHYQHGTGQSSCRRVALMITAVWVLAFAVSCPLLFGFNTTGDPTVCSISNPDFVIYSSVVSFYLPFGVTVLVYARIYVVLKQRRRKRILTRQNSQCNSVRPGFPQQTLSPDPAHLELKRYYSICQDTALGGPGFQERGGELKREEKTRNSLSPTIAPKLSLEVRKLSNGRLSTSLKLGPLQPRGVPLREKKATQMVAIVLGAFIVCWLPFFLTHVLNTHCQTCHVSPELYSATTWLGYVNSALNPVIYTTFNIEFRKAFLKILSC
# Procedure: as §1, §2, §3, §4, §5, §6, §7
# dopamine D4 receptor = dopamine D4 receptor (Homo sapiens (Human), UniProt P21917); assay: Secondary radioligand binding assay, D4
# Sequence of dopamine D4 receptor (P21917 whole entry, species assumed): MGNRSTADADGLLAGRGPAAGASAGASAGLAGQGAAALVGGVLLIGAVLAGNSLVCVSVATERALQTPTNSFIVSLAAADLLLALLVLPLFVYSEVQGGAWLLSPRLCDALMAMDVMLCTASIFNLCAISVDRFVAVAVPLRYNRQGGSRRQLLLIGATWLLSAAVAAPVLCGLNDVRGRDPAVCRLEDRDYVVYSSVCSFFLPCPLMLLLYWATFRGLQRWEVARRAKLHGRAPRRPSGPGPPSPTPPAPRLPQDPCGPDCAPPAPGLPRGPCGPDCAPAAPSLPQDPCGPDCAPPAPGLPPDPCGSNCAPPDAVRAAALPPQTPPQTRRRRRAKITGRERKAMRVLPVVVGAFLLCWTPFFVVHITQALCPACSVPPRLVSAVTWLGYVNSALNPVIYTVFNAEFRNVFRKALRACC
# Procedure: as §1, §2, §3, §4, §5, §6, §7
# 5HT2a receptor = 5HT2a receptor (Homo sapiens (Human), UniProt P28223); assay: Secondary radioligand binding assay, 5HT2a; conditions: average of at least two experiments
# Sequence of 5HT2a receptor (P28223 whole entry): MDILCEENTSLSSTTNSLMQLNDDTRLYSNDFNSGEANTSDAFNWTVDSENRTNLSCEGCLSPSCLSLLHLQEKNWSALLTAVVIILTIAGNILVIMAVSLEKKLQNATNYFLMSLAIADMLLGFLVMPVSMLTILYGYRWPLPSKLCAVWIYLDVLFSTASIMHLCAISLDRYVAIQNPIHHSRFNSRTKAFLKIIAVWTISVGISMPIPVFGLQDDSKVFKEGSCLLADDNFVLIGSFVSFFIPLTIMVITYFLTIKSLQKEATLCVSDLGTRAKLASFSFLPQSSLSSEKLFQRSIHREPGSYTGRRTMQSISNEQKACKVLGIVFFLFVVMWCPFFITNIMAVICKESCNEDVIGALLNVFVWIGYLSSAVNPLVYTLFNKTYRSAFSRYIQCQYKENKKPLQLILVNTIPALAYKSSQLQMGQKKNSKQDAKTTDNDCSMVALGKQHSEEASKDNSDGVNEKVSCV
# [1] = read-out: Ki dopamine D4 (relatively high affinity)
# [2] = receptor binding, average of at least two experiments, read-out: Ki D4
Compound,Ki 5HT1d (5HT1d receptor),Ki D2 (dopamine D2 receptor),Ki (5HT1a receptor) [nM],Ki D1 (dopamine D1 receptor),Ki D5 (dopamine D5 receptor),Ki 5HT7 (5HT7 receptor),Ki D3 (dopamine D3 receptor),Ki (dopamine D4 receptor; [1]) [nM],Ki (dopamine D4 receptor; [2]),Ki (5HT2a receptor) [nM],Ki (5HT7 receptor) [nM],Ki (dopamine D3 receptor) [nM],Ki (dopamine D1 receptor) [nM],Ki (dopamine D2 receptor) [nM]
C[C@@H]1Cc2ccccc2N1C(=O)CN1CCO[C@@H](COc2ccncc2)C1 [Compound 67],—,—,> 10000,—,—,—,—,,,,,,,
"Cc1ccc(OC[C@@H]2CN(CCN3CCc4ccccc43)CCO2)cn1 [Compound 28s, (S)-4-(2-(Indolin-1-yl)ethyl)-2-(((6-methylpyridin-3-yl)oxy)methyl)morpholine]",—,—,,—,—,—,—,< 1000,< 1000 nM,,,,,
"O=C(CN1CCO[C@H](COc2cccnc2)C1)N1CCc2ccccc21 [Compound 20s, (S)-1-(Indolin-1-yl)-2-(2-((pyridin-3-yloxy)methyl)morpholino)ethanone]",—,—,,—,—,—,—,,,,,,,
"O=C(CN1CCO[C@@H](COc2cccnc2)C1)N1CCc2ccccc21 [Compound 20r, (R)-1-(Indolin-1-yl)-2-(2-((pyridin-3-yloxy)methyl)morpholino)ethanone]",—,—,,—,—,—,—,,,2660,,,,
Cc1ncccc1OC[C@H]1CN(CC(=O)N2c3ccccc3CC2C)CCO1 (stereo partly drawn) [Compound 62],—,—,6590,—,—,—,—,,,,,,,
"O=C(CN1CCO[C@@H](COc2ccccn2)C1)N1CCc2ccccc21 [Compound 14r, (R)-1-(Indolin-1-yl)-2-(2-((pyridin-2-yloxy)methyl)morpholino)ethanone]",—,—,,—,—,—,—,,,,,,,
"O=C(CN1CCO[C@H](COc2ccccc2)C1)N1CCc2ccccc21 [Compound 18s, (S)-1-(Indolin-1-yl)-2-(2-(phenoxymethyl)morpholino)ethanone]",—,—,,—,—,—,—,,5530 nM,,,,,
"Cc1ncccc1OC[C@H]1CN(CCN2CCc3ccccc32)CCO1 [Compound 26r, (R)-4-(2-(Indolin-1-yl)ethyl)-2-(((2-methylpyridin-3-yl)oxy)methyl)morpholine]",—,—,,—,—,,,,,,> 10000,> 10000,,
CC1Cc2ccccc2N1C(=O)CN1CCO[C@@H](COc2ccncc2)C1 (stereo partly drawn) [Compound 68],—,—,> 10000,—,—,—,—,,,,,,,
"Cc1ncccc1OC[C@@H]1CN(CCN2CCc3ccccc32)CCO1 [Compound 26s, (S)-4-(2-(Indolin-1-yl)ethyl)-2-(((2-methylpyridin-3-yl)oxy)methyl)morpholine]",—,—,,—,—,—,—,< 1000,< 1000 nM and 435 nM,,,,,
"Cc1ccnc(OC[C@H]2CN(CCN3CCc4ccccc43)CCO2)c1 [Compound 17r, (R)-4-(2-(Indolin-1-yl)ethyl)-2-(((4-methylpyridin-2-yl)oxy)methyl)morpholine]",—,—,,,—,—,—,,1930 nM,,,,> 10000,
Cc1ccnc(OC[C@H]2CN(CC(=O)N3CCc4ccccc43)CCO2)c1 [Compound 16r],—,—,,,—,—,—,,,,,,> 10000,
CC1Cc2ccccc2N1C(=O)CN1CCO[C@@H](COc2ccccn2)C1 (stereo partly drawn) [Compound 69],—,—,> 10000,—,—,—,—,,,,,,,
Cc1ncccc1OC[C@@H]1CN(CC(=O)N2c3ccccc3CC2C)CCO1.Cl (stereo partly drawn) [Compound 60],—,—,592,,—,—,—,,,,,,> 10000,
"Clc1cccc(OC[C@H]2CN(CCN3CCc4ccccc43)CCO2)c1 [Compound 23r, (R)-2-((3-Chlorophenoxy)methyl)-4-(2-(indolin-1-yl)ethyl)morpholine]",—,,,—,—,—,—,,,2670,,,,> 10000
"Cc1ccc(OC[C@H]2CN(CCN3CCc4ccccc43)CCO2)cn1 [Compound 28r, (R)-4-(2-(Indolin-1-yl)ethyl)-2-(((6-methylpyridin-3-yl)oxy)methyl)morpholine]",—,—,,—,—,—,—,,,1480,,,,
"Clc1cncc(OC[C@H]2CN(CCN3CCc4ccccc43)CCO2)c1 [Compound 27r, (R)-2-(((5-Chloropyridin-3-yl)oxy)methyl)-4-(2-(indolin-1-yl)ethyl)morpholine]",—,—,,—,—,—,—,,,,,,,
Cc1ncccc1OC[C@H]1CN(CC(=O)N2c3ccccc3C[C@H]2C)CCO1 [Compound 63],—,—,5020,—,—,—,—,,,,,,,
